We go through twelve compounds from patent publication US20250257064A1, “TRIFLUOROMETHYL-SUBSTITUTED SULFONAMIDE AS BCL-2-SELECTIVE INHIBITOR” (Chia Tai Tianqing Pharmaceutical Group Co., Ltd., priority 2018, published 2025).

For orientation: IC50 means the concentration needed to halve the response being measured.

For experiment [1], the target named is T1, BCL-2/BAK (Homo sapiens, UniProt P10415).
T1 construct: purchased Cisbio
Description: Screening on inhibitory activity for BCL-2/BAK binding (Cisbio HTRF kit). As for the experimental part: 1.1 Screening on Inhibitory Activity for BCL-2/BAK Binding
500 nM Tag1-BCL-2 protein stock solution and 20 μM Tag2-BAK protein stock solution were diluted to 5 nM and 120 nM respectively with dilution buffer in kit (model: BCL-2/BAK (BH3) BINDING ASSAY KITS, from Cisbio). 5 μL of Tag1-BCL-2 protein diluent was added to each well, then different compounds dissolved with DMSO were added to the wells with a nanoliter pipettor, allowing the final compound concentrations to be 200 nM to 0.0488 nM (4-fold gradient for 7 concentrations in total). Blank control wells (without enzyme) and negative control wells (with enzyme, plus vehicle DMSO) were set, and 2 replicate wells were set. Finally, 5 μL of Tag2-BAK protein diluent was added to each well, and the mixture was mixed well by centrifugation and incubated at 25° C. for 15 min. 100× anti-Tag1-Eu^3+ and 100× anti-Tag2-XL665 were both diluted to 1× working concentration with the detection buffer in the kit. Anti-Tag1-Eu^3+ and anti-Tag2-XL665 were mixed well in a 1:1 ratio, and the mixture was added to wells at 5 μL/well, and incubated at 25° C. for 2 h or more. The plate was read using a PE Envision multi-functional microplate reader (excitation: […], emission: 665 nm) and IC50 (shown in table 1) was calculated by four-parameter fitting.
On the technique in general: Time-resolved FRET reads energy transfer from a long-lived donor to a nearby acceptor.

Experiment [2] deals with T2, BCL-XL/BAK (Homo sapiens, UniProt Q07817).
T2 construct: purchased Cisbio
T2 sequence (Q07817 whole entry, species assumed): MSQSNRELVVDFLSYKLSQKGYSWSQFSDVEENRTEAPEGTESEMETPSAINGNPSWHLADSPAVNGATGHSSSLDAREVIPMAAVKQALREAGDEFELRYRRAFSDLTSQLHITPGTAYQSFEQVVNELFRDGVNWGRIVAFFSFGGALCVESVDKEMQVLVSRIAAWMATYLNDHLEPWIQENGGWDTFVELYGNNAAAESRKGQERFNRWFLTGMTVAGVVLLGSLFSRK
The experiment can be described thus: Screening on inhibitory activity for BCL-XL/BAK binding (Cisbio HTRF kit). As for the experimental part:
1.2 Screening on Inhibitory Activity for BCL-XL/BAK Binding
300 nM Tag1-BCL-XL protein stock solution and 10 μM Tag2-BAK protein stock solution were diluted to 2 nM and 80 nM respectively with dilution buffer in kit (model: BCL-XL/BAK (BH3) BINDING ASSAY KITS, from Cisbio). 5 μL of Tag1-BCL-XL protein diluent was added to each well, then different compounds dissolved with DMSO were added to the wells with a nanoliter pipettor, allowing the final compound concentrations to be 2000 nM to 0.488 nM (4-fold gradient for 7 concentrations in total). Blank control wells (without enzyme) and negative control wells (with enzyme, plus vehicle DMSO) were set, and 2 replicate wells were set. Finally, 5 μL of Tag2-BAK protein diluent was added to each well, and the mixture was mixed well by centrifugation and incubated at 25° C. for 15 min. 100× anti-Tag1-Eu^3+ and 100× anti-Tag2-XL665 were both diluted to 1× working concentration with the detection buffer in the kit. Anti-Tag1-Eu^3+ and anti-Tag2-XL665 were mixed well in a 1:1 ratio, and the mixture was added to wells at 5 µL/well, and incubated at 25° C. for 2 h or more. The plate was read using a PE Envision multi-functional microplate reader (excitation: […], emission: 665 nm) and IC50 (shown in table 1) was calculated by four-parameter fitting.

The test system of experiment [3] is RS4;11 cells. Description: Inhibitory effect on proliferation of RS4;11 cells (CCK-8). The experiment is classed as cell-based, human. As to conditions: Homo sapiens, RS4-11, 72 h. As for the experimental part: Experimental Example 2: Inhibitory Effect of Compounds on Proliferation of RS4;11 Cells
RS4;11 cells (from Nanjing Cobioer) in logarithmic growth phase and good cell condition were added to a centrifuge tube and centrifuged at 1500 rpm for 3 min in a low speed centrifuge. The supernatant was discarded, and 5 mL of complete medium (RPMI basic medium+10 wt % fetal bovine serum (FBS)) was added using a pipette for cell resuspension. The cells were counted using a cell counter, diluted with complete medium to a cell density of 2×10^5 cells/mL, and added with an equivalent amount of RPMI basic medium to adjust the serum concentration to 5% and the cell density to 1×10^5 cells/mL for plate seeding. The cells were seeded on a 96-well plate at 100 μL/well using a pipettor, and incubated in an incubator at 37° C., 5% CO2 with saturated humidity. After 24 h of incubation, compounds were loaded using a nanoliter pipettor, 2 duplicate wells were set for each concentration, and cells without compound were used as negative controls. […] Inhibition rate (%)=(mean value of negative control group—mean value of experimental group)/(mean value of negative control group—mean value of blank group)×100%. A dose-response curve was fitted by four-parameter analysis, with the logarithm of compound concentration serving as abscissa and inhibition rate serving as ordinate, so that IC50 was calculated (FIG. 2).

T1 sequence (P10415 whole entry, species assumed): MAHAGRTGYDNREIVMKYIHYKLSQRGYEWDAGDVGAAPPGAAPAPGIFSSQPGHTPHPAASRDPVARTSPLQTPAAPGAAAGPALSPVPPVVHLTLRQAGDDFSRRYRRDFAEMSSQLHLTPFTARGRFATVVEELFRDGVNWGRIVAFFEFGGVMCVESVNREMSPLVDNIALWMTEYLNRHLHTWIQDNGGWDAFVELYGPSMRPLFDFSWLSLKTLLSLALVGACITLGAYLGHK

As for `CC1(C)CCC(CN2CCN(c3ccc(C(=O)NS(=O)(=O)c4ccc(NCC5CCCOC5)c([N+](=O)[O-])c4)c(Oc4cnc5[nH]ccc5c4)c3)CC2)=C(c2ccc(C(F)(F)F)cc2Cl)C1` (stereo not drawn) [Compound 13-1, 4-(4-{[2-(2-chloro-4-trifluoromethylphenyl)-4,4-dimethylcyclohex-1-enyl]methyl}-piperazin-1-yl)-N-({3-nitro-4-[(tetrahydro-2H-pyran-3-ylmethyl)amino]phenyl}sulfonyl)-2-(1H-pyrrolo[2,3-b]pyridin-5-yloxy)-benzamide], the IC50 is 3.6 nM in experiment [1], 387 nM in experiment [2] and 8.1 nM in experiment [3].

`CC1(C)CCC(CN2CCN(c3ccc(C(=O)NS(=O)(=O)c4ccc(NCC5CCCCO5)c([N+](=O)[O-])c4)c(Oc4cnc5[nH]ccc5c4)c3)CC2)=C(c2ccc(C(F)(F)F)cc2Cl)C1` (stereo not drawn) [Compound 14-1, 4-(4-{[2-(2-chloro-4-trifluoromethylphenyl)-4,4-dimethylcyclohex-1-enyl]methyl}-piperazin-1-yl)-N-({3-nitro-4-[(4-tetrahydro-2H-pyran-2-ylmethyl)amino]phenyl}sulfonyl)-2-(1H-pyrrolo[2,3-b]pyridin-5-yloxy)-benzamide]: the IC50 in experiment [1] was 5.1 nM; in experiment [2], 338 nM; in experiment [3], 8.6 nM.

`CC1(C)CCC(CN2CCN(c3ccc(C(=O)NS(=O)(=O)c4ccc(NCC5CCCN(S(C)(=O)=O)C5)c([N+](=O)[O-])c4)c(Oc4cnc5[nH]ccc5c4)c3)CC2)=C(c2ccc(C(F)(F)F)cc2Cl)C1` (stereo not drawn) [Compound 15-1]: the IC50 in experiment [1] came out at 3.83 nM; in experiment [2], 729 nM; in experiment [3], 7.2 nM.

Turning to `CC(=O)N1CCOC(CCNc2ccc(S(=O)(=O)NC(=O)c3ccc(N4CCN(CC5=C(c6ccc(C(F)(F)F)cc6Cl)CC(C)(C)CC5)CC4)cc3Oc3cnc4[nH]ccc4c3)cc2[N+](=O)[O-])C1` (stereo not drawn) [Compound 16-1, 4-(4-{[2-(2-chloro-4-trifluoromethylphenyl)-4,4-dimethylcyclohex-1-enyl]methyl}-piperazin-1-yl)-N-({3-nitro-4-[(2-(4-acetylmorpholin-2-yl)ethyl)amino]phenyl}sulfonyl)-2-(1H-pyrrolo[2,3-b]pyridin-5-yloxy)-benzamide], the results for the IC50 in experiment [1], in experiment [2] and in experiment [3] were 3.09 nM, 653 nM and 7.8 nM, respectively.

Take `CC(C)C(=O)N1CCC(CNc2ccc(S(=O)(=O)NC(=O)c3ccc(N4CCN(CC5=C(c6ccc(C(F)(F)F)cc6Cl)CC(C)(C)CC5)CC4)cc3Oc3cnc4[nH]ccc4c3)cc2[N+](=O)[O-])CC1` [Compound 23-1]: the results for the half-inhibitory concentration (IC50) in experiment [1], in experiment [2] and in experiment [3] were 5.1 nM, 302 nM and 10 nM, respectively.

On to `CC1(C)CCC(CN2CCN(c3ccc(C(=O)NS(=O)(=O)c4ccc(NC[C@H]5CCOC5)c([N+](=O)[O-])c4)c(Oc4cnc5[nH]ccc5c4)c3)CC2)=C(c2ccc(C(F)(F)F)cc2Cl)C1` [Compound 35-1, (R)-4-(4-{[2-(2-chloro-4-trifluoromethylphenyl)-4,4-dimethylcyclohex-1-enyl]methyl}-piperazin-1-yl)-N-({3-nitro-4-[((tetrahydrofuran-3-yl)methyl)amino]phenyl}sulfonyl)-2-(1H-pyrrolo[2,3-b]pyridin-5-yloxy)-benzamide], for which the IC50 in experiment [1] came out at 1.61 nM; in experiment [2], 232 nM; in experiment [3], 9.6 nM.

Consider `CC1(C)CCC(CN2CCN(c3ccc(C(=O)NS(=O)(=O)c4ccc(NC[C@H]5CCCO5)c([N+](=O)[O-])c4)c(Oc4cnc5[nH]ccc5c4)c3)CC2)=C(c2ccc(C(F)(F)F)cc2Cl)C1` [Compound 38-1, (R)-4-(4-{[2-(2-chloro-4-trifluoromethylphenyl)-4,4-dimethylcyclohex-1-enyl]methyl}-piperazin-1-yl)-N-({3-nitro-4-[((tetrahydrofuran-2-yl)methyl)amino]phenyl}sulfonyl)-2-(1H-pyrrolo[2,3-b]pyridin-5-yloxy)-benzamide], for which the concentration for half-maximal inhibition (IC50) in experiment [1] was 2.81 nM; in experiment [2], 187 nM; in experiment [3] it was 6.6 nM.

For the compound `CC1(C)CCC(CN2CCN(c3ccc(C(=O)NS(=O)(=O)c4ccc(NC[C@H]5CCCOC5)c([N+](=O)[O-])c4)c(Oc4cnc5[nH]ccc5c4)c3)CC2)=C(c2ccc(C(F)(F)F)cc2Cl)C1` [Compound 42-1, (R)-4-(4-{[2-(2-chloro-4-trifluoromethylphenyl)-4,4-dimethylcyclohex-1-enyl]methyl}-piperazin-1-yl)-N-({3-nitro-4-[((tetrahydropyran-3-yl)methyl)amino]phenyl}sulfonyl)-2-(1H-pyrrolo[2,3-b]pyridin-5-yloxy)-benzamide], the IC50 in experiment [1] is 2.81 nM; in experiment [2] it was 220 nM; in experiment [3], 6.8 nM.

For the compound `CC1(C)CCC(CN2CCN(c3ccc(C(=O)NS(=O)(=O)c4ccc(NCC5CN(C=O)CCO5)c([N+](=O)[O-])c4)c(Oc4cnc5[nH]ccc5c4)c3)CC2)=C(c2ccc(C(F)(F)F)cc2Cl)C1` (stereo not drawn) [Compound 48-1, 4-(4-{[2-(2-chloro-4-trifluoromethylphenyl)-4,4-dimethylcyclohex-1-enyl]methyl}-piperazin-1-yl)-N-({3-nitro-4-[((N-formylmorpholin-2-yl)methyl)amino]phenyl}sulfonyl)-2-(1H-pyrrolo[2,3-b]pyridin-5-yloxy)-benzamide], the IC50 in experiment [1] is 1.4 nM; in experiment [2] it was 118 nM; in experiment [3], 1.4 nM.

Turning to `CC1(C)CCC(CN2CCN(c3ccc(C(=O)NS(=O)(=O)c4ccc(NCC5CN(C(=O)C(C)(C)C)CCO5)c([N+](=O)[O-])c4)c(Oc4cnc5[nH]ccc5c4)c3)CC2)=C(c2ccc(C(F)(F)F)cc2Cl)C1` (stereo not drawn) [Compound 50-1, 4-(4-{[2-(2-chloro-4-trifluoromethylphenyl)-4,4-dimethylcyclohex-1-enyl]methyl}-piperazin-1-yl)-N-({3-nitro-4-[((4-pivaloylmorpholin-2-yl)methyl)amino]phenyl}sulfonyl)-2-(1H-pyrrolo[2,3-b]pyridin-5-yloxy)-benzamide], the concentration for half-maximal inhibition (IC50) in experiment [1] turned out to be 2.59 nM; in experiment [2], 211 nM; in experiment [3], 4.3 nM.

With `CC1(C)CCC(CN2CCN(c3ccc(C(=O)NS(=O)(=O)c4ccc(NCC5CN(C(=O)C(F)(F)F)CCO5)c([N+](=O)[O-])c4)c(Oc4cnc5[nH]ccc5c4)c3)CC2)=C(c2ccc(C(F)(F)F)cc2Cl)C1` (stereo not drawn) [Compound 52-1, 4-(4-{[2-(2-chloro-4-trifluoromethylphenyl)-4,4-dimethylcyclohex-1-enyl]methyl}-piperazin-1-yl)-N-({3-nitro-4-[((4-(2,2,2-trifluoroacetyl)morpholin-2-yl)methyl)amino]phenyl}sulfonyl)-2-(1H-pyrrolo[2,3-b]pyridin-5-yloxy)-benzamide], the values for the IC50 in experiment [1], in experiment [2] and in experiment [3] were 3.9 nM, 175 nM and 0.9 nM, respectively.

For the compound `COCC(=O)N1CCCC(CNc2ccc(S(=O)(=O)NC(=O)c3ccc(N4CCN(CC5=C(c6ccc(C(F)(F)F)cc6Cl)CC(C)(C)CC5)CC4)cc3Oc3cnc4[nH]ccc4c3)cc2[N+](=O)[O-])C1` (stereo not drawn) [Compound 58-1, 4-(4-{[2-(2-chloro-4-trifluoromethylphenyl)-4,4-dimethylcyclohex-1-enyl]methyl}-piperazin-1-yl)-N-({3-nitro-4-[((1-(2-methoxyacetyl)piperidin-3-yl)methyl)amino]phenyl}sulfonyl)-2-(1H-pyrrolo[2,3-b]pyridin-5-yloxy)-benzamide], the IC50 in experiment [1] came out at 2.35 nM; in experiment [2] it was 145 nM; in experiment [3] it was 5.3 nM.
